System: ω-conotoxin GVIA binding site on brain membrane preparations
Parameters: species or system frogs, chicks and rats

**Q.** What does the source list for ω-conotoxin GVIA?
**A.** displacement of 125I-GVIA: approximately 90%; displacement of 125I-GVIA label: approximately 98%

— patent US5990295A (priority 1998, dated 1999)
